In patent US20220331303A1, “USE OF AN OREXIN 2 RECEPTOR AGONIST FOR THE TREATMENT OF EXCESSIVE SLEEPINESS” (Takeda Pharmaceutical Company Limited, priority 2019, published 2022):
Read-outs that look alike come from different tables or passages of the source.

Assays:
Format in all cases: in vivo, human
[1] = test system: patients with NT2; experiment: MWT in patients with NT2 (Cohorts C1, C2)
Experimental: (§1) The purpose of the study was to evaluate the safety, tolerability, pharmacokinetics and pharmacodynamics of Compound A after multiple days of IV administration in patients with NT2. NT2 patients were evaluated in Cohort C1 and C2 (Table 30). Compound A or placebo were administered via IV infusion over 9 hours once daily for 7 days. A total of 14 patients with NT2 were treated with Compound A or placebo (5, 4, and 5 subjects in the placebo, Compound A 44 mg, and Compound A 112 mg groups, respectively). In this part, potential efficacy of Compound A was evaluated with MWT, ESS, KSS, night-time PSG (NPSG), and PGI-C as an exploratory PD assessment.
An overview of study schedule and PD testing in NT2 Patients is illustrated in FIG. 9. After screening, patients eligible for these parts had to discontinue any medication for narcolepsy including medications used for EDS or cataplexy. The medications had to be stopped for a minimum of 7 days or at least 5 half-lives of each medication, whichever was longer, before the first day of dosing (Day 1). In all cohorts of these parts, subjects underwent NPSG on Day −2 and baseline MWT sessions 4 times on Day −1 (at around 10:00, 12:00, 14:00, and 16:00). Study drug dosing via IV infusion was started at around 08:00 on Days 1-7. MWT was conducted on Day 1 at around 10:00, 12:00, 14:00, and 16:00. Subjects were allowed to take a nap on the days with no MWT assessment. At night of Day 6, the subjects underwent NPSG once again to evaluate the effect of multiple daytime dosing on night-time sleep structure. On Day 7, the subjects underwent MWT at the same hours as on Day −1. The subjects were discharged from the study site on Day 8.
The MWT is a validated objective measure that evaluates a person's ability to remain awake under soporific conditions for a defined period of time. As there is no biological measure of wakefulness, this was measured indirectly by the inability or delayed tendency to fall asleep. This tendency to fall asleep was measured via EEG-derived sleep latency in MWT.
On Day −1, Day 1 and Day 7, 40-minute session (1 session) of MWTs was performed 4 times (approximately at 10:00, 12:00, 14:00, and 16:00) per day. Sleep latency of each session was recorded. Subjects were required to stay awake during an interval between sessions.

[2] = test system: patients with NT2; experiment: KSS in patients with NT2; details: 9 hours postdose
Experimental: as §1

[3] = test system: patients with NT2; experiment: Epworth Sleepiness Scale (ESS) in patients with NT2; parameters: scale not given here; details: Day 7
Experimental: as §1

[4] = test system: subjects with obstructive sleep apnea; experiment: KSS in subjects with OSA experiencing EDS despite CPAP
Experimental: (§2) On Day 1 of Treatment Period 1, all eligible subjects were randomized and received the first dose of study drug. Compound A or placebo was administered as a single 9-hour IV infusion commencing at approximately 08:00. On each dosing day (Study Days 1, 3, and 5), 40-minute MWT sessions were performed at 2, 4, 6, and 8 hours after the start of the infusion. There was a minimum 24-hour washout interval between the end of the infusion and the commencement of treatment in subsequent treatment periods to allow for complete elimination of the preceding treatment effect. The KSS and PVT were collected per the Schedule of Study Procedures. Blood samples for determination of Compound A plasma concentrations were collected predose and at specified time points postdose, Safety assessments were recorded. During the study, AEs were recorded, clinical laboratory tests, vital signs, and safety ECGs were obtained. Study Days 2, 4, and 6 were washout days. Subjects were discharged from the unit following completion of study exit procedures in the afternoon of Study Day 6 (Day 2 of Treatment Period 3). Subjects were contacted by telephone approximately 7 days (±2 days) following unit discharge for a safety check.

[5] = Single-dose plasma PK of Compound A in subjects with OSA; details: for half-life: read-out: t½, z (converted)
Experimental: The treatment periods began on Day 1 of Treatment Period 1 (Study Day 1) with Treatment Periods 2 and 3 commencing on Study Days 3 and 5, respectively. In the morning of Day 1 of Treatment Period 1, eligible subjects were randomized to 1 of the 6 sequence groups as listed in Table 36. After randomization, the subject was dosed in 3 treatment periods according to the order defined by the sequence group to which he/she was randomized. On Day 1 of each treatment period, Compound A or placebo was administered as a single 9-hour IV infusion commencing at approximately 08:00. The infusion was terminated at approximately 17:00. On Day 1 of each treatment period, four 40-minute maintenance of wakefulness test (MWT) sessions was performed at 2, 4, 6, and 8 hours after the start of the infusion. Subjects were required to stay awake in between the MWT sessions.
as §2
Blood samples used for PK analysis of Compound A was collected according to Table 38.

[6] = human, intravenous, 44 mg single dose, subjects with OSA, plasma, mean (PK set)
[7] = human, intravenous, 112 mg single dose, subjects with OSA, plasma, mean (PK set)

COC(=O)N1CCC[C@H](NS(C)(=O)=O)[C@@H]1CO[C@H]1CC[C@@H](c2ccccc2)CC1 [Compound A, methyl (2R,3S)-3-((methylsulfonyl)amino)-2-(((cis-4-phenylcyclohexyl)oxy)methyl)piperidine-1-carboxylate]
Mean change from baseline in average sleep latency in MWT ([1]; Compound A 44 mg, Day 1): 23.88 min | Mean sleep latency in MWT ([1]; Compound A 44 mg, Day 1): 33.03 min | Mean change from baseline in average sleep latency in MWT ([1]; Compound A 44 mg, Day 7): 25.79 min | Mean sleep latency in MWT ([1]; Compound A 44 mg, Day 7): 34.47 min | Maximum sleep latency achieved in MWT ([1]; Compound A 44 mg, at 2 and 8 hours on Day 1 and at 4 and 8 hours on Day 7): 40 min | Mean change from baseline in average sleep latency in MWT ([1]; Compound A 112 mg, Day 1): 31.15 min | Mean sleep latency in MWT ([1]; Compound A 112 mg, Day 1): 38.48 min | Mean change from baseline in average sleep latency in MWT ([1]; Compound A 112 mg, Day 7): 28.28 min | Mean sleep latency in MWT ([1]; Compound A 112 mg, Day 7): 35.60 min | Maximum sleep latency achieved in MWT ([1]; Compound A 112 mg, at 2, 4, and 8 hours both on Day 1 and Day 7): 40 min | Mean change from baseline in KSS ([2]; Compound A 44 mg, Day 1): −0.5 | Mean change from baseline in KSS ([2]; Compound A 44 mg, Day 7): 0.0 | Mean change from baseline in KSS ([2]; Compound A 112 mg, Day 1): −1.0 | Mean change from baseline in KSS ([2]; Compound A 112 mg, Day 7): −0.8 | ESS Change from Baseline Mean ([3]; Compound A 44 mg): −3.8 | ESS Change from Baseline Median ([3]; Compound A 44 mg): −3.5 | ESS Observed Value Mean ([3]; Compound A 44 mg): 13.3 | ESS Observed Value Median ([3]; Compound A 44 mg): 14.0 | Mean ESS score ([3]; Compound A 44 mg): 13.3 | Mean change from baseline in ESS ([3]; Compound A 44 mg): −3.8 | ESS Change from Baseline Mean ([3]; Compound A 112 mg): −12.2 | ESS Change from Baseline Median ([3]; Compound A 112 mg): −13.0 | ESS Observed Value Mean ([3]; Compound A 112 mg): 6.0 | ESS Observed Value Median ([3]; Compound A 112 mg): 4.0 | Mean ESS score ([3]; Compound A 112 mg): 6.0 | Mean change from baseline in ESS ([3]; Compound A 112 mg): −12.2 | Mean placebo-adjusted decrease in KSS ([4]; Compound A 44 mg): −1.6 | Mean placebo-adjusted decrease in KSS ([4]; Compound A 112 mg): −2.4 | Plasma Concentration Mean ([5]; 44 mg, 0 h After Start of Infusion): BLQ | Plasma Concentration Mean ([5]; 44 mg, 0.17 h From End of Infusion): 53.69 ng/mL | Plasma Concentration Mean ([5]; 44 mg, 1 h After Start of Infusion): 59.80 ng/mL | Plasma Concentration Mean ([5]; 44 mg, 1 h From End of Infusion): 29.90 ng/mL | Plasma Concentration Mean ([5]; 44 mg, 3 h After Start of Infusion): 92.43 ng/mL | Plasma Concentration Mean ([5]; 44 mg, 4 h From End of Infusion): 15.22 ng/mL | Plasma Concentration Mean ([5]; 44 mg, 5 h After Start of Infusion): 101.7 ng/mL | Plasma Concentration Mean ([5]; 44 mg, 7 h After Start of Infusion): 86.37 ng/mL | Plasma Concentration Mean ([5]; 44 mg, 9 h After Start of Infusion): 90.42 ng/mL | Plasma Concentration Mean ([5]; 44 mg, 15 h From End of Infusion (24 hours from start of infusion)): 2.462 ng/mL | Ceoi ([5]; 112 mg single dose, subjects with OSA, plasma, mean (PK set)): 211.6 ng/mL | Plasma Concentration Mean ([5]; 112 mg, 0 h After Start of Infusion): BLQ | Plasma Concentration Mean ([5]; 112 mg, 0.17 h From End of Infusion): 139.3 ng/mL | Plasma Concentration Mean ([5]; 112 mg, 1 h After Start of Infusion): 162.9 ng/mL | Plasma Concentration Mean ([5]; 112 mg, 1 h From End of Infusion): 77.87 ng/mL | Plasma Concentration Mean ([5]; 112 mg, 3 h After Start of Infusion): 208.7 ng/mL | Plasma Concentration Mean ([5]; 112 mg, 4 h From End of Infusion): 34.12 ng/mL | Plasma Concentration Mean ([5]; 112 mg, 5 h After Start of Infusion): 222.3 ng/mL | Plasma Concentration Mean ([5]; 112 mg, 7 h After Start of Infusion): 208.9 ng/mL | Plasma Concentration Mean ([5]; 112 mg, 9 h After Start of Infusion): 211.6 ng/mL | Plasma Concentration Mean ([5]; 112 mg, 15 h From End of Infusion (24 hours from start of infusion)): 5.962 ng/mL | AUC(0-inf) [5, 6]: 899 ng·h/mL | AUC(0-t) [5, 6]: 884 ng·h/mL | Cmax [5, 6]: 102 ng/mL | clearance [5, 6]: 860 mL/min | concentration at 9 h ([5]; human, intravenous, 44 mg single dose, subjects with OSA, plasma, mean (PK set), read-out: Ceoi): 90.4 ng/mL | half-life [5, 6]: 3.79 h | AUC(0-inf) [5, 7]: 2060 ng·h/mL | AUC(0-t) [5, 7]: 2040 ng·h/mL | Cmax [5, 7]: 230 ng/mL | clearance [5, 7]: 954 mL/min | half-life [5, 7]: 3.93 h | Vd ([5]; human, plasma, intravenous, 44 mg, 44 mg single dose, subjects with OSA, plasma, mean (PK set), read-out: Vss): 129 L | Vd ([5]; human, plasma, intravenous, 44 mg, 44 mg single dose, subjects with OSA, plasma, mean (PK set), read-out: Vz): 278 L | Vd ([5]; human, plasma, intravenous, 112 mg, 112 mg single dose, subjects with OSA, plasma, mean (PK set), read-out: Vss): 139 L | Vd ([5]; human, plasma, intravenous, 112 mg, 112 mg single dose, subjects with OSA, plasma, mean (PK set), read-out: Vz): 319 L
